“Also recorded” adds a separate entry of the source. Like-named read-outs stand apart in the source and are kept apart here.
Columns and labels:
[1] = system: Aβ1-40/42; assay: Aβ1-40/42 levels in LA1-5s neuroblastoma cells; assay type: cell-based, human; conditions: LA1-5s cells
Experimental: (§1) Relative bar values in panel a are mean±SEM of 6 determinations. Asterisks: *, P<0.05; **, P<0.01; ***, P<0.001 (ANOVA). Values in panel b are means of 2-4 determinations.
Shown here are Mean±SEM (N=4) values relative to the mean initial basal or insulin-stimulated level of indicated immunoreactive protein/peptide. Asterisks: *, P<0.05; **, P<0.01; ***, P<0.001 (ANOVA).
(§2) Western Analyses. As described, Western analyses were conducted with rabbit antisera or mouse monoclonal antibodies (mMab), using: anti-aPKC (Santa Cruz Biotechnologies, Santa Cruz, CA); anti-phospho-threonine-560/555-PKC-ζ/λ/ι (Invitrogen, Carlsbad, CA); anti-p-serine-256-FoxO1 and anti-FoxO1 (Abnova, Walnut, CA); anti-Akt (mMab), anti-phospho-serine-473-Akt, anti-phospho-serine-9-GSK3P anti-GSK313, anti-phospho-serine-253-FoxO3a, anti-FoxO3a, anti-phospho-serine-256-FoxO1, anti-phospho-serine-193-FoxO4; anti-FoxO1, anti-phospho-serine-2448-mTOR, anti-mTOR, anti-β-amyloid (anti-5-10 kDa-Aβ1-40/42) and anti-amyloid precursor protein (anti-120 kDa-APP) (Cell Signaling Technologies, Danvers, MA); and anti-phospho-serine-202-tau, anti-phospho-threonine-231-tau (Gene Tex, Irvine, CA). Samples from experimental groups were compared on the same blots, and routinely checked with loading controls. Note that: insulin-sensitive 70 kDa aPKC is largely PKC-ζ in mouse brain and orthologous PKC-ι (98% aa homology) in monkey and other primate brains; brain PKC-ζ exists largely as a 50 kDa moiety that, lacking a regulatory domain, is constitutively-active and unresponsive to insulin.

[2] = molecular target: T1, aPKC (Homo sapiens, UniProt P41743); assay: aPKC activity in LA1-5s neuroblastoma cells; assay type: cell-based; set-up: endogenous in cells; host or cells: LA1-5s human neuroblastoma cells
T1 sequence (P41743 2-596): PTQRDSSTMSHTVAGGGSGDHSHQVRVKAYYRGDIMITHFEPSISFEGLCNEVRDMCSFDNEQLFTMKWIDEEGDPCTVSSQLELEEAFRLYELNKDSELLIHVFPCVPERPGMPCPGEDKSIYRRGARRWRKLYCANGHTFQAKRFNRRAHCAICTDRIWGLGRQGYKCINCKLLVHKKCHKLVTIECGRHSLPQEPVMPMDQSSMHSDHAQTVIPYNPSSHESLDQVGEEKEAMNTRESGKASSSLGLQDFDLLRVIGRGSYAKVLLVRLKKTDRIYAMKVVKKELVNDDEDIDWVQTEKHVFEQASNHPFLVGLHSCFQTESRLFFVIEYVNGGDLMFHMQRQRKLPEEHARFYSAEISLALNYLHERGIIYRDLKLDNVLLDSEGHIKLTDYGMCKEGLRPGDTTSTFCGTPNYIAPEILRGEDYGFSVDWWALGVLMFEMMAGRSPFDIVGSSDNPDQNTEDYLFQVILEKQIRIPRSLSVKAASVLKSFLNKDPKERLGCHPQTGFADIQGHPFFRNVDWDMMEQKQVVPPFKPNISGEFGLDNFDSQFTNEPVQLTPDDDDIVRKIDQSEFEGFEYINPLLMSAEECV

[3] = system: Akt substrates, GSK3β and mTOR; assay: phosphorylation of Akt substrates in LA1-5s neuroblastoma cells; assay type: cell-based, human; conditions: LA1-5s cells, 200 nM insulin, data not shown
Experimental: as §1, §2

[4] = molecular target: T1, aPKC; set-up: endogenous in cells; conditions: previously seen, stated as similar; read-out: IC50, inhibition of aPKC activity in isolated human hepatocytes; cited from earlier work
[5] = system: Akt substrates FOXO1, FOXO3a, GSK3β, and mTOR; assay: phosphorylation of Akt substrates in mouse brain; assay type: in vivo; conditions: Het-MλKO mice, s.c. once daily for 8 days (ICAPP 0.4 mg/kg, ATM 60 mg/kg)
Source text: Mouse Studies. Brain samples were obtained from normal and insulin-resistant mice and monkeys used previously, and includes mice originally used in studies of insulin signaling and resistance in liver: (a) 4-6 month old C57Bl/6 mice used in studies of high-fat-feeding [USF Vivarium] [6]; 4-6 month-old male C57Bl/6 ob/ob and lean ob+ mice (Jackson Labs, Bar Harbor, Maine); and (c) 10-12 month-old C57Bl/6 Het-MλKO mice [USF Vivarium] [8]. […] Where indicated normal mice were given a single SC injection of saline or saline containing 1.5 mg/kg ICAPP to follow time-related alterations in brain signaling factors. Where indicated, mice were treated intraperitoneally (IP) with insulin (1 U/kg body weight) or vehicle 15-min before euthanization by administration of Xylazine/Ketamine, followed by whole body perfusion with phosphate-buffered saline and rapid removal of brain and other tissues.
Tissue Preparations. As described, mouse brains were hemisected sagittally, and one-half was frozen in liquid N2, stored at −80° C., and samples thereof were homogenized in buffer containing 0.25M sucrose, 20 mM Tris/HCl (pH, 7.5), 2 mmol/l EGTA, 2 mM EDTA, 1 mM phenlysulfonoylfluoride (PMSF), 20 μg/ml leupeptin, 10 μg/ml aprotinin, 2 mM Na4P2O7, 2 mM Na3VO4, 2 mM NaF, and 1 μM microcystin, and then supplemented with 1% TritonX-100, 0.6% Nonidet and 150 mM NaCl.
Western Analyses. […]

[6] = system: conventional PKCs, novel PKCs, AMP-dependent protein kinase and Akt; conditions: cited from earlier work

SMILES: NC(=O)c1ncn([C@@H]2C[C@H](COP(=O)(O)O)[C@@H](O)[C@H]2O)c1N [ICAPP]
- effect on metformin-induced increase in Aβ1-40/42 [1]: dose-dependently inhibited
- effect on insulin-stimulated Aβ1-40/42 levels ([1]; 200 nM insulin): dose-dependent decreases
- effect on metformin-induced increase in aPKC activity ([2]; LA1-5s cells): dose-dependently inhibited
- IC50 ([2]; LA1-5s human neuroblastoma cells, 200 nM insulin, read-out: IC50, inhibition of insulin-stimulated aPKC activity): 1 to 10 nM
- effect on insulin-stimulated phosphorylation of Akt substrates [3]: without altering
- IC50 [4]: 1 to 10 nM
- resting/basal phosphorylation of Akt substrates in brain [5]: diminished
- acute insulin-stimulated phosphorylation of Akt substrates in brain ([5]; insulin 1 U/kg i.p. 15 min): restored ability of insulin; also recorded: fully able
- inhibition of conventional PKCs, novel PKCs, AMP-dependent protein kinase and Akt [6]: Neither ICAPP [8] nor ACPD [6,7] inhibit

— patent US11865125B2, “APKC inhibitors and methods of treating a neurodegenerative disease or disorder” (UNIVERSITY OF SOUTH FLORIDA, priority 2016, dated 2024)
